Measured values from patent US9676786B2, “Pharmacologically active compounds” (The University of Liverpool, priority 2013, dated 2017).
Like-named read-outs stand apart in the source and are kept apart here.

Legend:
neuropathic rats [1] = assay: Mechanical hyperalgesia, paw withdrawal thresholds in neuropathic rats (partial sciatic nerve ligation); type: in vivo, rat; details: neuropathic Wistar rats
Excerpt: (§1) The wound was closed with skin clips.
(§2) Control animals received vehicle alone.

neuropathic rats [2] = assay: Cold sensitivity (10° C. cold plate), paw withdrawal latencies in neuropathic rats; type: in vivo, rat; details: neuropathic Wistar rats
Excerpt: as §1, §2

[3] = Pharmacokinetic evaluation, oral dosing in rats; type: in vivo, rat; details: 10 mg/kg oral; for AUC(0-inf) / half-life / Cmax / Tmax: rat, plasma, po, 10 mg/kg; for Cmax: read-out: Cmax; for Tmax: read-out: Tmax
Procedure: • Dose—10 mg/kg (5 mL/kg) • Route—ORAL • Vehicles—10% DMSO/10% Solutol and SSV • Time—24 h • Procedure Number—6 Vehicles • 10% DMSO/10% Solutol/80% Saline • 1) Compound was weighed out into a clean vial. • 2) DMSO was added into the vial; the vial was vortexed and sonicated it for 15 min. • 3) Solutol HS 15 was heated at 50° C. until a liquid formed, and then was added into the vial. The vial was vortexed for 1-2 min. • 4) 0.9% Saline solution was added to the vial. The vial was vortexed and then sonicated for 10 min. Standard Suspension Vehicle (SSV) • 1) A solution of SSV was made using 0.5% Sodium carboxymethylcellulose, 0.5% Benzyl alcohol, 0.4% Tween80 and 98.6% saline (0.9%) • 2) Compound was weighed out into a clean vial • 3) SSV solution was added into the vial; the vial was vortexed and sonicated it for 15 min. Fasted Rats
Fasted rats were fasted overnight and given access to food immediately after dosing.
• 1) Rats were manually restrained and given a 10 mg/kg oral dose of compound at 5 mL/kg. • 2) At designated time points (0.25, 0.5, 1, 3, 5, 7 and 24 hours) the rats were anaesthetised using isoflurane. • 3) Approximately 300 μL of blood was taken from the tail vein using a 1.5 inch needle treated with heparin and collected into 1.5 mL eppendorf tubes. • 4) After sampling, pressure was applied to the puncture until bleeding ceased. The animals were returned to their cages and given free access to food and water. • 5) Blood samples were stored on ice and then centrifuged at 13,000 rpm for 15 min to separate the plasma. • 6) 150 μL of the plasma was treated with 300 μL of ACN:MeOH (1:1) solution containing the internal standard. The samples were then centrifuged for a further 15 min at 13,000 rpm. • 7) 200 μL of the supernatant was collected and placed in LC-MS vials for analysis. All samples were stored at −80° C. Results

neuropathic rats [4] = assay: Comparison of LT-01-25 and LT-01-89: ipsilateral paw withdrawal thresholds to mechanical pressure in neuropathic rats; type: in vivo, rat; details: 10 mg/kg p.o., male SD rats
Procedure: Male, SD rats. n=6/group. Vehicle: 10% DMSO/10% Solutol HS15/80% saline.
• 1) In rats a peripheral neuropathy was induced by partial ligation of the sciatic nerve in one hind limb. • 2) Two weeks (12-15 days) after induction of peripheral neuropathy stable mechanical (tactile) allodynia was induced in the hind paw of the affected limb. • 3) Five treatment groups of male SD rats (n=8) were used: vehicle control (drug formulation), 3 drug doses, and a positive control, lamotrigine (30 mg/kg). Animals were randomized between groups and the experiment was carried out using blinded conditions. The study was split with n=4/group in each experiment. • 4) Baseline behavioural measurements were obtained prior to surgery and at intervals post-surgery. Predose behavioural measurements were obtained by measuring paw withdrawal thresholds 12-15 days following nerve ligation. • 5) Compound efficacy was determined by measuring paw withdrawal thresholds at specified intervals following vehicle/compound treatment. Methods Animals
Animals were maintained in a controlled lighting environment and given food and water ad libitum. Male Sprague Dawley rats (120-140 g at time of surgery) were used.
Rats were fasted overnight with free access to water and fed 4 hours post-dose.
Tests compounds as well as Lamotrigine (30 mg/kg, volume: 10 ml/kg)) were prepared in the designated formulation (10% DMSO, Solutol HS 15/80% and 0.9% saline for p.o. administration) and administered via the chosen route.
Rats were anaesthetised (isoflurane/O2 inhalation), the left sciatic nerve was exposed at mid-thigh level through a small incision and ⅓ to ½ of the nerve thickness tightly ligated within a 7.0 silk suture. The wound was closed with skin clips. Animals were allowed to recover and compounds administered 12-15 days following surgery.
Compound/vehicle were administered at specified doses. Following treatment, further readings were taken; 1, 3, 6 and 24 hour after p.o. administration.

neuropathic rats [5] = assay: Comparison of LT-01-25 and LT-01-89: ipsilateral withdrawal latencies to cold (10° C.) stimulus in neuropathic rats; type: in vivo, rat; details: 10 mg/kg p.o., male SD rats
[6] = Cerebrospinal fluid (CSF) levels after oral dosing; type: in vivo; details: p.o. dose 3 mg/kg, after 2 hr, fasted male SD rat
Rat microsomal stability = type: in vitro ADME; details: for half-life at 1 μM: rat, rat microsomes
Excerpt: Rat and human microsomal stability data was obtained using well established protocols known to those skilled in the art.

[7] = Human microsomal stability; type: in vitro ADME
Procedure: The metabolic stability assay was performed by incubating each test compound (1 μM) with human liver microsomes in duplicate at 37° C. and 0.4 mg/mL protein concentration. The metabolic reaction was initiated by the addition of a NADPH-regenerating system (i.e. NADPH is the cofactor required for CYP450-mediated metabolism) and quenched at various time points over the 60 minute incubation period by the addition of acetonitrile. Control samples (containing no NADPH) were included (and quenched at 2, 30 and 60 minutes) to monitor for potential degradation in the absence of cofactor. Samples were analysed by UPLC-MS (Waters/Micromass Xevo G2 QTOF) under positive electrospray ionisation and MS spectral data acquired in a mass range of 80 to 1200 Daltons.
Test compound concentration versus time data were fitted to an exponential decay function to determine the first-order rate constant for substrate depletion. In cases where clear deviation from first-order kinetics was evident, only the initial linear portion of the profile was utilised to determine the degradation rate constant (k). Each substrate depletion rate constant was then used to calculate: [1] a degradation half-life, [2] an in vitro intrinsic clearance value (CLint, in vitro); [3] a predicted in vivo hepatic intrinsic clearance value (CLint); [4] a predicted in vivo blood clearance value (CLblood); and [5] a predicted in vivo hepatic extraction ratio (EH).
• 1) The substrate concentration employed is well below the apparent KM for substrate turnover; and, • 2) There is no significant product inhibition, nor is there any mechanism-based inactivation of enzyme. The use of hepatic microsomes in the prediction of the in vivo hepatic extraction ratio has two further inherent assumptions (Obach, 1999) which: • 1) NADPH-dependent oxidative metabolism predominates over other metabolic routes (i.e. direct conjugative metabolism, reduction, hydrolysis, etc.); and, • 2) Rates of metabolism and enzyme activities in vitro are truly reflective of those that exist in vivo. Data should be considered within these terms of reference.

α1 glycine receptor = α1 glycine receptor (Homo sapiens (Human), UniProt P23415); assay: Expression and electrophysiological characterization of glycine receptor activity (patch/voltage clamp); type: cell-based; details: modulation of agonist induced currents at glycine EC20; means ± s.d.
Chain of α1 glycine receptor (P23415 29-457 limits assumed): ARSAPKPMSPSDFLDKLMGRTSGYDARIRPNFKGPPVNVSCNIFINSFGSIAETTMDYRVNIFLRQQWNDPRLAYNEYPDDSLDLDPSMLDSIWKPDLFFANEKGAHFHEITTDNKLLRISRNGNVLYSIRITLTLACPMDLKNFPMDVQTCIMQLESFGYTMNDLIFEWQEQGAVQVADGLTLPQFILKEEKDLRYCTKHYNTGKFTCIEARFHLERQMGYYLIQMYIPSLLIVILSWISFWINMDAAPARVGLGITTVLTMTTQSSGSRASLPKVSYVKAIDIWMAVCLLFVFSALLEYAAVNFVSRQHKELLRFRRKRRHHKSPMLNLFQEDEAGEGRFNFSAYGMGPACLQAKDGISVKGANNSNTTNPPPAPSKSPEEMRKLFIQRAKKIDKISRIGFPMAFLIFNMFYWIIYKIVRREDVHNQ
Procedure: Human embryonic kidney (HEK) 293 cells (ATCC CRL 1573) and/or Xenopus laevis oocytes were used for expressing the human a1-3 glycine receptor subunit as well as human a1, b3, g2 GABA receptor subunit cDNAs inserted into mammalian expression vectors. Patch- and voltage-clamp recording from receptor expressing cells was performed at a holding potential of −70 mV in normal Ringer solution and digitized for analyses. Dose-response curves of agonist induced peak currents (I) were normalized to the maximal current value obtained and fitted with the sigmoidal Hill equation using a Gauss Marquardt iteration, where EC50 represents the glycine/GABA concentration resulting in a half maximal response. Effects of the compounds tested on agonist induced currents were analysed after superfusing the cells with the respective compound for 5 seconds prior to and during agonist application and dose-response curves of modulated currents were determined in the presence of agonist concentrations eliciting a response corresponding to 20% of the maximal inducible current (EC20 value). Results represent means±s.d. and the significance of the data was evaluated using Student's paired t test and considered to be statistically significant at P<0.05.

[8] = 10% DMSO/10% Solutol/80% Saline, fasted rats
[9] = 10% DMSO/10% Solutol/80% Saline, non-fasted rats

With `Nc1nnc(-c2cccc(Cl)c2Cl)c(N)n1` [lamotrigine, reference compound] the “Reversal, mechanical (positive control)” value (neuropathic rats [1]; positive control) was 65% and the “Reversal, cold (positive control)” value (neuropathic rats [2]; positive control) was 72%.

For `CC(C)c1cc(C(=O)N2CCOCC2)cc(C(C)C)c1O` [LT-01-25, (4-(hydroxy)-3,5-diisopropylphenyl)(morpholino)methanone], the “Peak reversal, mechanical (paw pressure)” value (neuropathic rats [1]; p.o., peak occurred at 3h) was 90%, the “Peak reversal, cold (10° C. cold plate)” value (neuropathic rats [2]; p.o., peak occurred at 1h) was 93% and the “CL (area)/kg” value [3, 8] was 19.532 mL/min/kg. The “Vd (area)/kg” value [3, 8] was 2.3006 L/kg, the “CL (area)/kg” value [3, 9] was 8.423 mL/min/kg and the “Vd (area)/kg” value [3, 9] was 0.9737 L/kg. For the same compound, the “CL (area)/kg” value ([3]; SSV, fasted rats) was 9.193 mL/min/kg, the “Vd (area)/kg” value ([3]; SSV, fasted rats) was 1.1426 L/kg and the “CL (area)/kg” value ([3]; SSV, non-fasted rats) was 8.662 mL/min/kg. For the same compound, the “Half Life” value ([3]; SSV, non-fasted rats) was 3.6 h, the “Vd (area)/kg” value ([3]; SSV, non-fasted rats) was 2.7109 L/kg and the AUC(0-inf) [3, 8] was 8530 ng·h/mL. It also gave a half-life [3, 8] of 1.4 h, a Cmax [3, 8] of 2420 ng/mL and a Tmax [3, 8] of 0.3 h. It also gave an AUC(0-inf) [3, 9] of 20400 ng·h/mL, a half-life [3, 9] of 1.4 h and a Cmax [3, 9] of 1710 ng/mL. The Tmax [3, 9] was 4 h, the AUC(0-inf) ([3]; SSV, fasted rats) was 18100 ng·h/mL and the half-life ([3]; SSV, fasted rats) was 1.4 h. The Cmax ([3]; SSV, fasted rats) was 2590 ng/mL, the Tmax ([3]; SSV, fasted rats) was 1 h and the AUC(0-inf) ([3]; SSV, non-fasted rats) was 19000 ng·h/mL. For the same compound, the half-life ([3]; SSV, non-fasted rats) was 3.62 h, the Cmax ([3]; SSV, non-fasted rats) was 2120 ng/mL and the Tmax ([3]; SSV, non-fasted rats) was 0.25 h. The “Mechanical pressure Percentage reversal of predose hyperalgesia” value (“Mechanical pressure Percentage reversal” for short) (neuropathic rats [4]; 1 hr) was 1 hr - - - 80%, the “Mechanical pressure Percentage reversal” value (neuropathic rats [4]; 3 hr) was 3 hr - - - 90% and the “Mechanical pressure Percentage reversal” value (neuropathic rats [4]; 6 hr) was 6 hr - - - 40%. For the same compound, the “Cold (10° C.) Stimulus Percentage reversal of predose Hyperalgesia” value (neuropathic rats [5]; 1 hr) was 1 hr - - - 85%, the “Cold (10° C.) Stimulus Percentage reversal of predose Hyperalgesia” value (neuropathic rats [5]; 3 hr) was 3 hr - - - 35% and the “Cold (10° C.) Stimulus Percentage reversal of predose Hyperalgesia” value (neuropathic rats [5]; 6 hr) was 6 hr - - - 35%. For the same compound, the CSF levels [6] was 95 ng/mL, the “CSF levels as multiple of EC50” value [6] was “(900 × EC50)” and the Cl (Rat microsomal stability; Rat microsomes, 1 μM) was 3.35 mL/min/kg. For the same compound, the “Cl (values marked *)” value (Rat microsomal stability; Rat microsomes, 1 μM, second set marked *) was 1.07 mL/min/kg (Cl)*, the half-life at 1 μM (Rat microsomal stability; read-out: t1/2) was 12.3 h and the half-life at 1 μM (Rat microsomal stability; second set marked *, read-out: t1/2 (values marked *)) was 19.2 h. For the same compound, the half-life at 1 μM ([7]; human liver microsomes, read-out: t1/2 (values marked *)) was 8.25 h and the “Cl (values marked *)” value ([7]; human microsomes, 1 μM) was 2.7 mL/min/kg (Cl) *.

`CC(C)c1cc(C(=O)N2CCO[C@H](C)C2)cc(C(C)C)c1O` [Example 2, (R)-(4-(hydroxy)-3,5-diisopropylphenyl)(2-methylmorpholino)methanone] gave an EC50 (α1 glycine receptor) of 0.06 nM.
